Laboratory results: PubChem BioAssay AID1259407 (Chemical Carcinogenesis Research Information System (CCRIS), 2018)
Active and inactive are the calls of the source. The rule behind the calls is not given here.

System: CCRIS mutagenicity, Ames/micronucleus/aberration tests
Test: CCRIS mutagenicity studies

With CC(C)CCC[C@@H](C)[C@H]1CC[C@H]2[C@@H]3CC=C4C[C@@H](OC(=O)Cc5ccc(N(CCCl)CCCl)cc5)CC[C@]4(C)[C@H]3CC[C@]12C the mutagenic call (Test System: AMES SALMONELLA TYPHIMURIUM, Strain/Indicator: TA98, Metabolic Activation: HAMSTER, LIVER, S-9, AROCLOR 1254 (10%), Method: PREINCUBATION) was “inactive; negative”, the mutagenic call (Test System: AMES SALMONELLA TYPHIMURIUM, Strain/Indicator: TA98, Metabolic Activation: NONE, Method: PREINCUBATION) was “inactive; negative” and the mutagenic call (Test System: AMES SALMONELLA TYPHIMURIUM, Strain/Indicator: TA98, Metabolic Activation: RAT, LIVER, S-9, AROCLOR 1254 (10%), Method: PREINCUBATION) was “inactive; negative”. For the same compound, the mutagenic call (Test System: AMES SALMONELLA TYPHIMURIUM, Strain/Indicator: TA100, Metabolic Activation: HAMSTER, LIVER, S-9, AROCLOR 1254 (10%), Method: PREINCUBATION) was “inactive; negative”, the mutagenic call (Test System: AMES SALMONELLA TYPHIMURIUM, Strain/Indicator: TA100, Metabolic Activation: NONE, Method: PREINCUBATION) was “inactive; negative” and the mutagenic call (Test System: AMES SALMONELLA TYPHIMURIUM, Strain/Indicator: TA100, Metabolic Activation: RAT, LIVER, S-9, AROCLOR 1254 (10%), Method: PREINCUBATION) was “inactive; negative”. The mutagenic call (Test System: AMES SALMONELLA TYPHIMURIUM, Strain/Indicator: TA1535, Metabolic Activation: HAMSTER, LIVER, S-9, AROCLOR 1254 (10%), Method: PREINCUBATION) was “inactive; negative”, the mutagenic call (Test System: AMES SALMONELLA TYPHIMURIUM, Strain/Indicator: TA1535, Metabolic Activation: NONE, Method: PREINCUBATION) was “inactive; negative” and the mutagenic call (Test System: AMES SALMONELLA TYPHIMURIUM, Strain/Indicator: TA1535, Metabolic Activation: RAT, LIVER, S-9, AROCLOR 1254 (10%), Method: PREINCUBATION) was “inactive; negative”. The mutagenic call (Test System: AMES SALMONELLA TYPHIMURIUM, Strain/Indicator: TA1537, Metabolic Activation: HAMSTER, LIVER, S-9, AROCLOR 1254 (10%), Method: PREINCUBATION) was “inactive; negative”, the mutagenic call (Test System: AMES SALMONELLA TYPHIMURIUM, Strain/Indicator: TA1537, Metabolic Activation: NONE, Method: PREINCUBATION) was “inactive; negative” and the mutagenic call (Test System: AMES SALMONELLA TYPHIMURIUM, Strain/Indicator: TA1537, Metabolic Activation: RAT, LIVER, S-9, AROCLOR 1254 (10%), Method: PREINCUBATION) was “inactive; negative”.

CC1(C)C[C@H]2C=C(C=O)[C@]34C[C@]3(C(=O)O[C@@H]4O)[C@H]2C1 was tested, and the mutagenic call (Test System: AMES SALMONELLA TYPHIMURIUM, Strain/Indicator: TA98, Metabolic Activation: NONE, Method: SPOT TEST) was “active; positive”, the mutagenic call (Test System: AMES SALMONELLA TYPHIMURIUM, Strain/Indicator: TA98, Metabolic Activation: NONE, Method: STANDARD PLATE) was “active; positive” and the mutagenic call (Test System: AMES SALMONELLA TYPHIMURIUM, Strain/Indicator: TA100, Metabolic Activation: NONE, Method: SPOT TEST) was “inactive; negative”. The mutagenic call (Test System: AMES SALMONELLA TYPHIMURIUM, Strain/Indicator: TA100, Metabolic Activation: NONE, Method: STANDARD PLATE) was “active; positive”, the mutagenic call (Test System: AMES SALMONELLA TYPHIMURIUM, Strain/Indicator: TA1535, Metabolic Activation: NONE, Method: SPOT TEST) was “inactive; negative” and the mutagenic call (Test System: AMES SALMONELLA TYPHIMURIUM, Strain/Indicator: TA1538, Metabolic Activation: NONE, Method: SPOT TEST) was “inactive; negative”. For the same compound, the mutagenic call (Test System: AMES SALMONELLA TYPHIMURIUM, Strain/Indicator: TA2637, Metabolic Activation: NONE, Method: STANDARD PLATE) was “active; positive” and the mutagenic call (Test System: CHINESE HAMSTER V-79, Strain/Indicator: V-79/6-THIOGUANINE (HGPRT), Metabolic Activation: NONE) was “inactive; negative”.

In the case of CNP(=O)(N(C)C)N(C)C, the mutagenic call (Test System: AMES SALMONELLA TYPHIMURIUM, Strain/Indicator: TA100, Metabolic Activation: NONE, Method: SUSPENSION) is reported as “inactive; negative” and the mutagenic call (Test System: AMES SALMONELLA TYPHIMURIUM, Strain/Indicator: TA100, Metabolic Activation: RAT, LIVER, S-9, AROCLOR 1254, Method: SUSPENSION) is reported as “active; positive”.
